# Measurements as given in patent US11452724B2, “Methods for treating amyotrophic lateral sclerosis” (The Regents of the University of Michigan, priority 2018, dated 2022).
# Read-outs that look alike come from different tables or passages of the source.
# What was measured:
# NK92 NK cell line [1] = assay: Cytokine gene expression by qPCR in IL-15 stimulated NK92 cells; type: cell-based; details: 30 ng/ml IL-15, tofacitinib treatment (Overnight IL-15) or pre-treatment (2 Hr IL-15)
# Protocol: (§1) FIG. 3A-E: Tofacitinib reduces NK cell activity and cytotoxicity. (A) NK cells (NK92 cell line) were treated with tofacitinib either after 30 ng/ml of IL-15 activation overnight (ON) or before IL-15 activation (2-hours) to test its efficacy in inhibiting already activated NK cells (overnight stimulation) or preventing their activation (2-hour stimulation). (B) NK cells cultured Overnight or 2 Hrs with IL-15 were lysed and cytokine expression assessed using qPCR. IL-10, TNF-α, and IFN-γ gene expression was assessed. (C) Intracellular granzyme B and perforin were levels were assessed in NK cells in vitro using flow cytometry. […] (D) NK cell migration was assessed using a transwell assay. […] A chemoattractant (serum or CCL13) was placed on the other side of the transwell and after 3 hours the fluorescent intensity in the chemoattractant half of the well was assessed. (E) NK cytotoxicity was measured using a K562 co-culture assay. […] Cells were then stained with a viability dye and analyzed using flow cytometry. […]
# To test this possibility, experiments were conducted that utilized the well-characterized NK92 NK cell line to assess tofacitinib's impact on NK cell activation and cytotoxicity in vitro. […] First, NK cells from these two conditions were collected, lysed, and cytokine expression gene expression was assessed using qPCR (FIG. 3B).
# [2] = test system: NK92 NK cells co-cultured with K562 cancer cells; assay: NK cytotoxicity K562 co-culture assay; type: cell-based; details: 4:1 NK:K562 ratio overnight; even following overnight IL-15 stimulation
# Protocol: as §1
# (§2) Experiments were conducted to assess the impact on NK cell migration following tofacitinib treatment (FIG. 3D). […] NK cell chemoattractants (serum or CCL13) were then placed in the other half of the well and the number of NK cells which traversed the membrane were measured. […] Cells were collected, stained with a viability dye, and analyzed using flow cytometry. […]
# NK92 NK cells = assay: NK cell migration transwell assay; type: cell-based; details: IL-15 stimulated NK92 cells, 3 hours
# Protocol: as §1, §2
# NK92 NK cell line [3] = assay: Intracellular granzyme B and perforin levels in NK cells by flow cytometry; type: cell-based
# Protocol: FIG. 3A-E: Tofacitinib reduces NK cell activity and cytotoxicity. (A) NK cells (NK92 cell line) were treated with tofacitinib either after 30 ng/ml of IL-15 activation overnight (ON) or before IL-15 activation (2-hours) to test its efficacy in inhibiting already activated NK cells (overnight stimulation) or preventing their activation (2-hour stimulation). (B) NK cells cultured Overnight or 2 Hrs with IL-15 were lysed and cytokine expression assessed using qPCR. IL-10, TNF-α, and IFN-γ gene expression was assessed. (C) Intracellular granzyme B and perforin were levels were assessed in NK cells in vitro using flow cytometry. Fluorescent intensity was plotted for unstimulated NK cells in serum free conditions (negative control; blue), serum-stimulated NK cells (positive control; red), IL-15 stimulated NK cells (30 ng/ml IL-15; orange), or tofacitinib treated NK cells (30 ng/ml IL-15+ tofacitinib; green). (D) NK cell migration was assessed using a transwell assay. NK92 cells were fluorescently labeled and placed on one side of a well separated by a porous membrane. A chemoattractant (serum or CCL13) was placed on the other side of the transwell and after 3 hours the fluorescent intensity in the chemoattractant half of the well was assessed. (E) NK cytotoxicity was measured using a K562 co-culture assay. […] Cells were then stained with a viability dye and analyzed using flow cytometry. […]
# peripheral NK cells [4] = details: human patients; van Vollenhoven et al. 2019, van Gurp et al. 2008; cited from earlier work
# NK cells, CD4 T cells = details: cited from earlier work
# peripheral NK cells [5] = details: mice; Shimaoka et al. 2017; cited from earlier work
smiles,measurement,setting,value
C[C@@H]1CCN(C(=O)CC#N)C[C@@H]1N(C)c1ncnc2[nH]ccc12 [tofacitinib],IFN-γ gene expression,NK92 NK cell line [1],significantly reduced
same,IL-10 gene expression,NK92 NK cell line [1],significantly reduced
same,NK cell-mediated killing (K562 survival),[2],ameliorated
same,NK cell migration in response to CCL13,NK92 NK cells; CCL13 as chemoattractant,more robust suppression
same,NK cell migration in response to serum,NK92 NK cells; serum as chemoattractant,modest reduction
same,intracellular perforin levels,"NK92 NK cell line [3]; NK cells stimulated with IL-15, particularly when treated with tofacitinib prior to IL-15 stimulation",reduced
same,intracellular granzyme B levels,"NK92 NK cell line [3]; NK cells stimulated with IL-15 overnight or for two hours, flow cytometry",modest effect
same,peripheral NK cells,peripheral NK cells [4],capable of reducing
same,NK cell levels,"NK cells, CD4 T cells; Hodge et al. 2016, van Gurp et al. 2008",reduced in a dose dependent manner
same,CD4 T cell levels,"NK cells, CD4 T cells; van Gurp et al. 2008",maintaining
same,peripheral NK cells,peripheral NK cells [5],capable of reducing
